Assay results reported in publication doi:10.1101/158956v2 (biorxiv, 2017).

Tests used:
[1] = target: T1, EcFumA (Escherichia coli, UniProt P0AC33); assay: spectrophotometric initial velocity; assay type: biochemical
T1 sequence (P0AC33 2-548): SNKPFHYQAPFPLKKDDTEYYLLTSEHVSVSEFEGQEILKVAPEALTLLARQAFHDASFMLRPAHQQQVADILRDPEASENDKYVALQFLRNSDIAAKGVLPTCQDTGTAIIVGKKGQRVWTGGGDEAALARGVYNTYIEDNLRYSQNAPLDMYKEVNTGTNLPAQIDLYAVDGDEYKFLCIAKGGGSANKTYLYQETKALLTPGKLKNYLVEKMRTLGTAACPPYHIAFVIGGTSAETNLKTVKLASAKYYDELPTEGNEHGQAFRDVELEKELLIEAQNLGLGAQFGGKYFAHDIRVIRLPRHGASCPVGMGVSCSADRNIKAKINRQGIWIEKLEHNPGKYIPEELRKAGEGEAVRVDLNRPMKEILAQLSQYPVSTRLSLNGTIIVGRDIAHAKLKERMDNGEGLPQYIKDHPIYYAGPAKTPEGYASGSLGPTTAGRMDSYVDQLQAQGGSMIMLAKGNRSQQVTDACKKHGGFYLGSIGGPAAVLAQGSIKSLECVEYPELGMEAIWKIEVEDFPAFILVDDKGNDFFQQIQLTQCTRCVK

[2] = target: T2, EcFumC (Escherichia coli, UniProt P05042); assay: spectrophotometric initial velocity; assay type: biochemical
T2 sequence (P05042 1-467): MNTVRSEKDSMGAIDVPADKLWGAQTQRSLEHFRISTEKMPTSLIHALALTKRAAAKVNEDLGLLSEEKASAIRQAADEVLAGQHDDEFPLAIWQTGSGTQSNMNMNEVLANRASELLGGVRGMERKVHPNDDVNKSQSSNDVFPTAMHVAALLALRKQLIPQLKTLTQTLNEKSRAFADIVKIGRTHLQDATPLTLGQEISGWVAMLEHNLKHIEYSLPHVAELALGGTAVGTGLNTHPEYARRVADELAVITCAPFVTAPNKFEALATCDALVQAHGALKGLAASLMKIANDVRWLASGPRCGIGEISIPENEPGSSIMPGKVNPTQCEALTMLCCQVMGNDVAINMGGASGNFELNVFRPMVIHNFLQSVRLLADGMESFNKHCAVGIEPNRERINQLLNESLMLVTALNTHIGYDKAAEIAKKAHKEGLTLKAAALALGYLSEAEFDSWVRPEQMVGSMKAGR

[3] = target: T3, PfFHΔ40 (PfFΔ40) (Plasmodium falciparum, UniProt Q8I2N6); assay: spectrophotometric initial velocity; assay type: biochemical
T3 sequence (Q8I2N6 41-681): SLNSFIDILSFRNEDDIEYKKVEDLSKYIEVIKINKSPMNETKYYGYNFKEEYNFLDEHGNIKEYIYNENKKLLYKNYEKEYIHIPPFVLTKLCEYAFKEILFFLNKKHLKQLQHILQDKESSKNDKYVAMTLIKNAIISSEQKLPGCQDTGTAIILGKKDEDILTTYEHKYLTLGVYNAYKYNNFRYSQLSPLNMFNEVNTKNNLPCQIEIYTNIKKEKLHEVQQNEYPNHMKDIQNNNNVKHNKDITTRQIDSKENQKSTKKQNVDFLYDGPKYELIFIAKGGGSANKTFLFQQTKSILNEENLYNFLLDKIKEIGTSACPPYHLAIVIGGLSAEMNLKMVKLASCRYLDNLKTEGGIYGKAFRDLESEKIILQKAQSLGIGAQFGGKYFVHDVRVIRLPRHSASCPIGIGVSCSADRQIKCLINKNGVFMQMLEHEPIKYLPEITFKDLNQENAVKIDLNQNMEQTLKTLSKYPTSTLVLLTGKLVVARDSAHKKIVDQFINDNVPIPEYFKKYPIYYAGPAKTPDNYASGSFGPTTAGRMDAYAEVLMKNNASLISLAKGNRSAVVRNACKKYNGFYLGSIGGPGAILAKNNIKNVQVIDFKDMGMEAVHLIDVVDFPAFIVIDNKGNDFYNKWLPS

[4] = target: T3, PfFHΔ40 (PfFΔ40); assay: spectrophotometric initial velocity, Michaelis-Menten fit; conditions: 50 mM Tris-HCl pH 8.5, 37 °C
[5] = target: T3, PfFHΔ40 (PfFΔ40); assay: spectrophotometric initial velocity, global fit to competitive model; assay type: biochemical
[6] = substrate: C/C(=C\C(=O)O)C(=O)O; assay: purified protein; conditions: 50 mM Tris-HCl pH 8.5, 37 °C
[7] = substrate: O=C(O)C[C@H](O)C(=O)O; assay: purified protein; conditions: 50 mM Tris-HCl pH 8.5, 37 °C

O=C(O)C(O)C(O)C(=O)O (stereo not drawn) [meso-tartrate]
Ki [1]: 625 µM
Ki [2]: 652 µM
Ki [3]: 114 ± 17 µM

O=C(O)/C=C/C(=O)O [fumarate]
Km [4]: 2.6 ± 0.3 mM

O=C(O)CC(S)C(=O)O (racemic) [DL-mercaptosuccinic acid]
Ki [5]: 548 ± 46 nM
Ki [1]: 2.9 ± 0.22 µM

B1: PfFHΔ40 (PfFΔ40) (Plasmodium falciparum 3D7) (protein)
chain: T3 sequence (Q8I2N6 41-681)
Km [6]: 3.2 ± 0.3 mM
Km [7]: 1.2 ± 0.1 mM
